Results taken from patent US20150025034A1, “COMPOSITION FOR CARE AND HYGIENE OF THE AUDITORY CANAL” (LABORATOIRES GILBERT, priority 2012, published 2015).

Test: In vitro assessment of the cerumenolytic effect on plugs of human cerumen
Details: 1 ml per 30 mg plug, 1 hour incubation, 37° C.
Experimental: The activity was assessed through the loss of weight of the plugs of cerumen caused by the dissolution of part of this plug, or more precisely the loss was calculated between the initial dry weight and the remaining dry weight after action of the product in the test.
Reference product: an aerosol spray based on pure sea water (nitrogen propellant), hereinafter referred to as T1, an aerosol spray containing sodium bicarbonate and polysorbate as active principles, hereinafter referred to as T2, and ultrapure water (type 1, Milli-Q water) are used as references. T1 and T2 are commercially available compositions used by way of compositions for the care and hygiene of the auditory channel and judged effective.
12 plugs of human cerumen, to a total weight of 1.55 grams, came from patients from the Ear, Nose and Throat Department of the Saint-Grégoire Hospital (35760). The plugs were mixed in order to obtain a homogeneous plug. […]
The effect sought is the dissolution of the plug. This dissolution is assessed by the loss of weight of the plug between the initial dry weight and the dry weight after incubation. […]
1 ml of composition CE1 and the reference compositions were added separately in previously weighed tubes and put in an oven at 90° C. for 48 hours in order to determine the quantity of dry residues of each composition. […]

## O [pure water, water]
  Dissolution of human cerumen (loss of dry weight of the plug): 51.5%
